Data taken from paper PMC10445084, “Green synthesis, anti-proliferative evaluation, docking, and MD simulations studies of novel 2-piperazinyl quinoxaline derivatives using hercynite sulfaguanidine-SA as a highly efficient and reusable nanocatalyst” (RSC Advances, 2023).

What was measured:
HCT116 = assay: MTT cytotoxicity assay, HCT116 colon cancer cells; format: cell-based, human; conditions: 48 h incubation
Method: (§1) The tested cells were cultured in medium and dialyzed fetal bovine serum (FBS) and then as suspended germs in Minimum Essential Medium (MEM) were seeded into 96-well plates (at the density of 10 × 10^4 viable cells per well). After 24 h incubation in 5% CO2 at 37 °C and cell attachment. Then the evaluated compounds (at 0.1–250 μg ml^−1 concentrations) were added to the cultured cells and incubated for another 24/48 h.[18,19] After washing of the cell containing plates with […], 20 μl of fresh 4,5-(dimethylthiazol-2-yl)-2,5-diphenyl tetrazolium bromide (MTT) solution (5 mg ml^−1) was added to each well, and incubated with cells for additional 4 h in the same conditions. Then, the medium was discarded and approximately 70 μl of DMSO was used and the resulted solution was vigorously mixed to dissolve and remove the residual tetrazolium and purple formazan crystals in each well. Next, the absorbance of each well was measured at 492 nm and 630 nm (for absorbance of MTT formazan and the reference wavelength respectively) with an ELISA plate reader. Stock solutions of all the tested compounds were prepared in DMSO, while the final dilutions were made with distilled water in order to maintain a maximum concentration of 0.5% DMSO per well. All the evaluated compounds were also tested for cytotoxicity on HFF normal cells at the above-mentioned concentrations and in the same conditions and incubation periods of time. Curves were fit using Graph Pad Prism as described in the Methods section.[19]
(§2) All the evaluated N-Mannich bases (2a–2d, 3a–3h and 4a–4d) were investigated for anti-proliferative activity against two cancer cell lines, HCT116 (human colon cancer) and KOV3 (human ovarian carcinoma). HFF (human foreskin fibroblasts) normal cells were also tested to determine the selectivity of their cytotoxic effects in killing cancer over normal cells. […] After 24 and 48 h of incubation, cell viability was measured by the [3-(4,5-dimethylthiazol-2-yl)-2,5-diphenyltetrazolium bromide] (MTT) colorimetric assay.[34] At the end of each incubation period, the IC50 value and cell viability for each N-Mannich base were calculated in different concentrations (0.15–2.4 μM) and determined graphically as established in Fig. 3. […] A DMSO equivalent control (n = 2 ± SEM) was also included for each cell line tested. Standard graph was plotted by taking concentration of the drug in X axis and relative cell viability in Y axis (cell viability (%) = mean OD/control OD × 100%) in Graph Pad Prism 8.
(§3) 2.5. Biological evaluations: In vitro cytotoxicity
(§4) This rapid assay is based on the reduction of tetrazolium salt to dark blue formazan product by mitochondrial enzymes of living, not dead cells after 24 and 48h exposure of cells to tested compounds at different concentrations. DMSO (with the less concentration than 1%) was the solvent in this biological test. serial concentrations were made by diluting stock solution of each compound (50μM) with culture media (RPMI 1640). […]

SKOV3 = assay: MTT cytotoxicity assay, SKOV3 ovarian cancer cells; format: cell-based, human; conditions: 48 h incubation
Method: as §1, §2, §3, §4

[1] = test system: HFF (human foreskin fibroblasts) normal cells; assay: MTT cytotoxicity assay, HFF normal cells; format: cell-based; conditions: Fibroblast, 48 h incubation
Method: as §1, §2, §3, §4

HCT116 and SKOV3 = assay: MTT assay, statements pooled over both cancer cell lines; format: cell-based; conditions: Homo sapiens, read-out: IC50 on the tested cancer cell lines
Method: as §1, with “Then, the medium was discarded and approximately 70 μl of DMSO was used and the resulted solution was vigorously mixed to dissolve and remove the residual tetrazolium and purple formazan crystals in each well.” left out, “Stock solutions of all the tested compounds were prepared in DMSO, while the final dilutions were made with distilled water in order to maintain a maximum concentration of 0.5% DMSO per well.” left out, “Curves were fit using Graph Pad Prism as described in the Methods section.[19]” left out
All the evaluated N-Mannich bases (2a–2d, 3a–3h and 4a–4d) were investigated for anti-proliferative activity against two cancer cell lines, HCT116 (human colon cancer) and KOV3 (human ovarian carcinoma). […] After 24 and 48 h of incubation, cell viability was measured by the [3-(4,5-dimethylthiazol-2-yl)-2,5-diphenyltetrazolium bromide] […]

| IC50 (HCT116 and SKOV3) | SMILES | IC50 (HCT116; Homo sapiens, HCT-116, 48 h) | IC50 (SKOV3; Homo sapiens, SK-OV-3, 48 h) | IC50 [1] | IC50 (HCT116) | IC50 (SKOV3) |
| --- | --- | --- | --- | --- | --- | --- |
|  | Cc1ccc2c(c1)/C(=N\C(=N)NC(=N)N(C)C)C(=O)N2CN1CCN(c2cnc3ccccc3n2)CC1 [4d] | 1.54 µM | 1.72 µM | 10 µM |  |  |
|  | O=C1C(=O)N(CN2CCN(c3cnc4ccccc4n3)CC2)c2ccccc21 [2a, 1-((4-(quinoxalin-2-yl)piperazin-1-yl)methyl) indoline-2,3-dione] | 7.03 µM | 7.67 µM | 83.6 µM |  |  |
|  | NC(=S)N/N=C1/C(=O)N(CN2CCN(c3cnc4ccccc4n3)CC2)c2ccccc21 [3b, 2-(2-oxo-1-((4-(quinoxalin-2-yl)piperazin-1-yl)methyl)indolin-3-ylidene) hydrazine-1-carbothioamide] | 3.03 µM | 3.38 µM | 24.6 µM |  |  |
|  | NC(=S)N/N=C1/C(=O)N(CN2CCN(c3cnc4ccccc4n3)CC2)c2ccc(Br)cc21 [3d, 2-(5-bromo-2-oxo-1-((4-(quinoxalin-2-yl)piperazin-1-yl)methyl)indolin-3-ylidene) hydrazine-1-carbothioamide] | 4.85 µM | 5.03 µM | 49.6 µM |  |  |
| < 1 µM | CN(C)C(=N)NC(=N)/N=C1/C(=O)N(CN2CCN(c3cnc4ccccc4n3)CC2)c2ccc(Cl)cc21 [4c, N′-[4-(quinoxaline-2-yl)-piperazine-1-yl]methyl-5-chloro-1-H-indole,2,3-dion-3-metformin] | 0.39 µM | 0.44 µM | 6.81 µM | 0.392 µM | 0.44 µM |
| < 1 µM | CN(C)C(=N)NC(=N)/N=C1/C(=O)N(CN2CCN(c3cnc4ccccc4n3)CC2)c2ccc(Br)cc21 [4b, N′-[4-(quinoxaline-2-yl)-piperazine-1-yl]methyl-5-bromo-1-H-indole,2,3-dion-3-metformin] | 0.45 µM | 0.48 µM | 6.95 µM | 0.458 µM | 0.488 µM |
|  | Cc1ccc2c(c1)C(=NNC(N)=O)C(=O)N2CN1CCN(c2cnc3ccccc3n2)CC1 [3g, 2-(5-methyl-2-oxo-1-((4-(quinoxalin-2-yl)piperazin-1-yl)methyl)indolin-3-ylidene)hydrazine-1-carboxamide] | 2.92 µM | 3.25 µM | 22.8 µM |  |  |
|  | O=C1C(=O)N(CN2CCN(c3cnc4ccccc4n3)CC2)c2ccc(Cl)cc21 [2c, 5-chloro-1-((4-(quinoxalin-2-yl)piperazin-1-yl)methyl) indoline-2,3-dione] | 6.06 µM | 6.49 µM | 82 µM |  |  |
|  | CN(C)C(=N)NC(=N)N=C1C(=O)N(CN2CCN(c3cnc4ccccc4n3)CC2)c2ccccc21 [4a, N’-[4-(quinoxaline-2-yl)-piperazine-1-yl]methyl-1-H-indole,2,3-dion-3-metformin] | 1.23 µM | 1.51 µM | 9.11 µM |  |  |
|  | NC(=O)N/N=C1/C(=O)N(CN2CCN(c3cnc4ccccc4n3)CC2)c2ccc(Br)cc21 [3c, 2-(5-bromo-2-oxo-1-((4-(quinoxalin-2-yl)piperazin-1-yl)methyl)indolin-3-ylidene) hydrazine-1-carboxamide] | 3.35 µM | 3.52 µM | 35.9 µM |  |  |
|  | NC(=S)N/N=C1/C(=O)N(CN2CCN(c3cnc4ccccc4n3)CC2)c2ccc(Cl)cc21 [3f, 2-(5-chloro-2-oxo-1-((4-(quinoxalin-2-yl)piperazin-1-yl)methyl)indolin-3-ylidene) hydrazine-1-carbothioamide] | 4.92 µM | 5.15 µM | 57.1 µM |  |  |
|  | NC(=O)NN=C1C(=O)N(CN2CCN(c3cnc4ccccc4n3)CC2)c2ccccc21 [3a, 2-(2-oxo-1-((4-(quinoxalin-2-yl)piperazin-1-yl)methyl)indolin-3-ylidene) hydrazine-1-carboxamide] | 1.99 µM | 2.21 µM | 13.5 µM |  |  |
|  | Cc1ccc2c(c1)/C(=N\NC(N)=S)C(=O)N2CN1CCN(c2cnc3ccccc3n2)CC1 [3h, 2-(5-methyl-2-oxo-1-((4-(quinoxalin-2-yl)piperazin-1-yl)methyl)indolin-3-ylidene) hydrazine-1-carbothioamide] | 3.23 µM | 3.46 µM | 26.6 µM |  |  |
|  | NC(=O)N/N=C1/C(=O)N(CN2CCN(c3cnc4ccccc4n3)CC2)c2ccc(Cl)cc21 [3e, 2-(5-chloro-2-oxo-1-((4-(quinoxalin-2-yl)piperazin-1-yl)methyl)indolin-3-ylidene) hydrazine-1-carboxamide] | 4.3 µM | 4.96 µM | 37.6 µM |  |  |
|  | O=C1C(=O)N(CN2CCN(c3cnc4ccccc4n3)CC2)c2ccc(Br)cc21 [2b, 5-bromo-1-((4-(quinoxalin-2-yl)piperazin-1-yl)methyl) indoline-2,3-dione] | 5.12 µM | 5.43 µM | 58.1 µM |  |  |
|  | Cc1ccc2c(c1)C(=O)C(=O)N2CN1CCN(c2cnc3ccccc3n2)CC1 [2d, 5-methyl-1-((4-(quinoxalin-2-yl)piperazin-1-yl)methyl) indoline-2,3-dione] | 5 µM | 5.3 µM | 58.1 µM |  |  |
